Results from patent US4590178A (Ajinomoto Company, Incorporated, priority 1982, dated 1986).

System: spontaneously hypertensive rats
Assay: Antihypertensive activity: systolic blood pressure measured indirectly on conscious SHR after peroral dosing
Type: in vivo, rat
Settings: for Systolic Blood Pressure, Pretreatment: SHR (male, 13 months, 2 per sample), before 35 mg/kg peroral single dose; for Systolic Blood Pressure, 4 hrs after administration / Δ Blood Pressure: SHR; for Systolic Blood Pressure, 4 hrs after administration: 4 hours after 35 mg/kg peroral single dose; for Δ Blood Pressure: 4 hours after 35 mg/kg peroral single dose versus pretreatment
Protocol: The antihypertensive activity of part of the amino acid derivatives prepared above, was determined.
As subject animals 2 SHR were used which had been trained enough and been confirmed to be hypertensive spontaneously hypertensive rats (male, 13 months of age, the body weight of 400 to 440 g) per sample.
As an instrument for measuring the blood pressure a Programmed Electro-Sphygmomanometer PE-300 (Narco Co., U.S.A.) was used, and the blood pressure was indirectly measured on conscious rats.
An aqueous solution or suspension of a sample (35 mg/kg) was once force-fed into the stomach by means of a peroral probe.
An antihypertensive activity of part of the amino acid derivatives prepared above was determined.
As subject animals there were used 2 SHR which had been trained enough and been confirmed to be hypertensive spontaneously hypertensive rats (male, 13 months of age, the body weight of 400~440 g) per sample.
As an instrument for measuring the blood pressure there was used Programmed Electro-Sphygmomanometer PE-300 (Narco Co., U.S.A.), and the blood pressure was indirectly measured on conscious rats.
An antihypertensive activity of the product prepared above was determined.

## CCOP(=O)(CCc1ccccc1)N[C@@H](CCCCN)C(=O)N1CCC[C@H]1C(=O)N1CCC[C@H]1C(=O)O.NC(N)=NCCC[C@H](N)C(=O)O (stereo partly drawn) [Example 37, N^α -(O-Ethyl-P-phenethylphosphonyl)-L-lysyl-L-prolyl-L-proline L-arginine salt]
  Systolic Blood Pressure, Pretreatment: 201 mm Hg
  Systolic Blood Pressure, 4 hrs after administration: 172 mm Hg
  Δ Blood Pressure: -29 mm Hg

## C[C@H](NP(=O)(CCc1ccccc1)OCc1ccccc1)C(=O)N(CC(=O)N1CCC[C@H]1C(=O)O)C1Cc2ccccc2C1.NC(N)=NCCC[C@H](N)C(=O)O (stereo partly drawn) [Example 30, N-(O-Benzyl-P-phenethylphosphonyl)-L-alanyl-N-(2-indanyl)glycyl-L-proline L-arginine salt]
  Systolic Blood Pressure, Pretreatment: 184 mm Hg
  Systolic Blood Pressure, 4 hrs after administration: 154 mm Hg
  Δ Blood Pressure: -30 mm Hg

## NCCCC[C@H](NP(=O)(O)CCc1ccccc1)C(=O)N1CCC[C@H]1C(=O)N1CCC[C@H]1C(=O)[O-].NCCCC[C@H](NP(=O)(O)CCc1ccccc1)C(=O)N1CCC[C@H]1C(=O)N1CCC[C@H]1C(=O)[O-].[Na+].[Na+] [Example 36, N^α -Phenethylphosphonyl-L-lysyl-L-prolyl-L-proline 2 sodium salt]
  Systolic Blood Pressure, Pretreatment: 200 mm Hg
  Systolic Blood Pressure, 4 hrs after administration: 177 mm Hg
  Δ Blood Pressure: -23 mm Hg

## Dibenzylphosphoryl-L-alanyl-L-prolyl-L-proline L-lysine salt [Example 24]
  Systolic Blood Pressure, Pretreatment: 192 mm Hg
  Systolic Blood Pressure, 4 hrs after administration: 161 mm Hg
  Δ Blood Pressure: -31 mm Hg

## C[C@H](NP(=O)(OCc1ccccc1)OCc1ccccc1)C(=O)N1CCC[C@H]1C(=O)O.NC(N)=NCCC[C@H](N)C(=O)O [*, Dibenzyl phosphorylL-alanyl-L-proline Larginine salt, reference compound]
  Systolic Blood Pressure, Pretreatment: 198 mm Hg
  Systolic Blood Pressure, 4 hrs after administration: 193 mm Hg
  Δ Blood Pressure: -5 mm Hg

## O=C(O)[C@@H]1CCCN1C(=O)[C@@H]1CCCN1C(=O)[C@H](Cc1ccccc1)NP(=O)(Cc1ccccc1)Cc1ccccc1 [Example 20, Dibenzylphosphoryl-L-phenylalanyl-L-Prolyl-L-proline]
  Systolic Blood Pressure, Pretreatment: 184 mm Hg
  Systolic Blood Pressure, 4 hrs after administration: 169 mm Hg
  Δ Blood Pressure: -15 mm Hg

## C[C@H](NP(=O)(OCc1ccccc1)OCc1ccccc1)C(=O)N1CCC[C@H]1C(=O)N1C[C@H](O)C[C@H]1C(=O)O.N=C(N)NCCC[C@H](N)C(=O)O (relative stereo) [Example 16, Dibenzylphosphoryl-L-alanyl-L-prolyl-trans-L-hydroxyproline L-arginine salt]
  Systolic Blood Pressure, Pretreatment: 181 mm Hg
  Systolic Blood Pressure, 4 hrs after administration: 162 mm Hg
  Δ Blood Pressure: -19 mm Hg

## Dibenzylphosphoryl-L-alanyl-L-prolyl-L-proline L-arginine salt [Example 1]
  Systolic Blood Pressure, Pretreatment: 205 mm Hg
  Systolic Blood Pressure, 4 hrs after administration: 170 mm Hg
  Δ Blood Pressure: -35 mm Hg

## Dibenzylphosphoryl-L-alanyl-L-prolyl-L-proline dicyclohexylamine salt [Example 74]
  Systolic Blood Pressure, Pretreatment: 195 mm Hg
  Systolic Blood Pressure, 4 hrs after administration: 165 mm Hg
  Δ Blood Pressure: -30 mm Hg

## Dibenzylphosphoryl-L-isoleucyl-L-prolyl-L-proline L-arginine salt [Example 18]
  Systolic Blood Pressure, Pretreatment: 192 mm Hg
  Systolic Blood Pressure, 4 hrs after administration: 171 mm Hg
  Δ Blood Pressure: -21 mm Hg

## Dibenzylphosphoryl-L-prolyl-L-tyrosine L-arginine salt [Example 4]
  Systolic Blood Pressure, Pretreatment: 207 mm Hg
  Systolic Blood Pressure, 4 hrs after administration: 195 mm Hg
  Δ Blood Pressure: -12 mm Hg

## Diethylphosphoryl-L-lysyl-L-prolyl-L-proline calcium salt [Example 56]
  Systolic Blood Pressure, Pretreatment: 204 mm Hg
  Systolic Blood Pressure, 4 hrs after administration: 181 mm Hg
  Δ Blood Pressure: -23 mm Hg

## Dibenzylphosphoryl-glycyl-L-prolyl-L-proline L-arginine salt [Example 19]
  Systolic Blood Pressure, Pretreatment: 196 mm Hg
  Systolic Blood Pressure, 4 hrs after administration: 181 mm Hg
  Δ Blood Pressure: -15 mm Hg

## C[C@H](NP(=O)(OCc1ccccc1)OCc1ccccc1)C(=O)N1CCC[C@H]1C(=O)N1CCC[C@H]1C(=O)[O-].[K+] [Example 32, Dibenzylphosporyl-L-alanyl-L-propyl-L-Proline potassium salt]
  Systolic Blood Pressure, Pretreatment: 185 mm Hg
  Systolic Blood Pressure, 4 hrs after administration: 160 mm Hg
  Δ Blood Pressure: -25 mm Hg

## Dibenzylphosphoryl-L-alanyl-L-prolyl-D-alanine L-arginine salt [Example 14]
  Systolic Blood Pressure, Pretreatment: 183 mm Hg
  Systolic Blood Pressure, 4 hrs after administration: 161 mm Hg
  Δ Blood Pressure: -22 mm Hg

## N=C(N)NCCC[C@H](NP(=O)(Cc1ccccc1)Cc1ccccc1)C(=O)N1CCC[C@H]1C(=O)N1CCC[C@H]1C(=O)O [Example 21, Dibenzylphosphoryl-L-arginyl-L-prolyl-L-proline]
  Systolic Blood Pressure, Pretreatment: 191 mm Hg
  Systolic Blood Pressure, 4 hrs after administration: 167 mm Hg
  Δ Blood Pressure: -24 mm Hg

## Diethylphosphoryl-L-alanyl-L-prolyl-L-proline L-arginine salt [Example 25]
  Systolic Blood Pressure, Pretreatment: 183 mm Hg
  Systolic Blood Pressure, 4 hrs after administration: 156 mm Hg
  Δ Blood Pressure: -27 mm Hg

## N-Phenethylphosphonyl-L-methionyl-L-prolyl-L-proline 2 sodium salt [Example 34]
  Systolic Blood Pressure, Pretreatment: 183 mm Hg
  Systolic Blood Pressure, 4 hrs after administration: 154 mm Hg
  Δ Blood Pressure: -29 mm Hg

## CSCC[C@H](NP(=O)(CCc1ccccc1)OCc1ccccc1)C(=O)N1CCC[C@H]1C(=O)N1CCC[C@H]1C(=O)O.NC(N)=NCCC[C@H](N)C(=O)O (stereo partly drawn) [Example 35, N-(O-Benzyl-P-phenethylphosphonyl)-L-methionyl-L-prolyl-L-proline L-arginine salt]
  Systolic Blood Pressure, Pretreatment: 191 mm Hg
  Systolic Blood Pressure, 4 hrs after administration: 158 mm Hg
  Δ Blood Pressure: -33 mm Hg

## CCOP(=O)(CCc1ccccc1)N[C@@H](C)C(=O)N1CCC[C@H]1C(=O)N1CCC[C@H]1C(=O)[O-].[Na+] (stereo partly drawn) [Example 43, N--(O--ethyl-P--phenethylphosphonyl)-L-alanyl-L-prolyl-L-proline sodium salt]
  Systolic Blood Pressure, Pretreatment: 195 mm Hg
  Systolic Blood Pressure, 4 hrs after administration: 171 mm Hg
  Δ Blood Pressure: -24 mm Hg

## C[C@H](NP(=O)(O)CCc1ccccc1)C(=O)N(CC(=O)N1CCC[C@H]1C(=O)[O-])C1Cc2ccccc2C1.C[C@H](NP(=O)(O)CCc1ccccc1)C(=O)N(CC(=O)N1CCC[C@H]1C(=O)[O-])C1Cc2ccccc2C1.[Na+].[Na+] [Example 29, N-Phenethylphosphonyl-L-alanyl-N-(2-indanyl)glycyl-L-proline 2 sodium salt]
  Systolic Blood Pressure, Pretreatment: 203 mm Hg
  Systolic Blood Pressure, 4 hrs after administration: 172 mm Hg
  Δ Blood Pressure: -31 mm Hg

## C[C@H](NP(=O)(OCc1ccccc1)OCc1ccccc1)C(=O)N1CCC[C@H]1C(=O)N[C@@H](CCCNC(=N)N)C(=O)O [Example 13]
  Systolic Blood Pressure, Pretreatment: 181 mm Hg
  Systolic Blood Pressure, 4 hrs after administration: 162 mm Hg
  Δ Blood Pressure: -19 mm Hg
